Drawing on patent US7709482B2, “Polycyclic heteroaryl substituted triazoles useful as Axl inhibitors” (Rigel Pharmaceuticals, Inc., priority 2006, dated 2010), this text covers IC50 for 18 compounds.

SMILES strings stand for the structures. pIC50: −log10 of the molar value. Where two headings read alike, the source gives them in different places.

The assay deals with T1, Axl (Homo sapiens, UniProt P30530).
T1 construct: endogenous in cells; host or cells: HeLa cells
T1 sequence (P30530 26-894): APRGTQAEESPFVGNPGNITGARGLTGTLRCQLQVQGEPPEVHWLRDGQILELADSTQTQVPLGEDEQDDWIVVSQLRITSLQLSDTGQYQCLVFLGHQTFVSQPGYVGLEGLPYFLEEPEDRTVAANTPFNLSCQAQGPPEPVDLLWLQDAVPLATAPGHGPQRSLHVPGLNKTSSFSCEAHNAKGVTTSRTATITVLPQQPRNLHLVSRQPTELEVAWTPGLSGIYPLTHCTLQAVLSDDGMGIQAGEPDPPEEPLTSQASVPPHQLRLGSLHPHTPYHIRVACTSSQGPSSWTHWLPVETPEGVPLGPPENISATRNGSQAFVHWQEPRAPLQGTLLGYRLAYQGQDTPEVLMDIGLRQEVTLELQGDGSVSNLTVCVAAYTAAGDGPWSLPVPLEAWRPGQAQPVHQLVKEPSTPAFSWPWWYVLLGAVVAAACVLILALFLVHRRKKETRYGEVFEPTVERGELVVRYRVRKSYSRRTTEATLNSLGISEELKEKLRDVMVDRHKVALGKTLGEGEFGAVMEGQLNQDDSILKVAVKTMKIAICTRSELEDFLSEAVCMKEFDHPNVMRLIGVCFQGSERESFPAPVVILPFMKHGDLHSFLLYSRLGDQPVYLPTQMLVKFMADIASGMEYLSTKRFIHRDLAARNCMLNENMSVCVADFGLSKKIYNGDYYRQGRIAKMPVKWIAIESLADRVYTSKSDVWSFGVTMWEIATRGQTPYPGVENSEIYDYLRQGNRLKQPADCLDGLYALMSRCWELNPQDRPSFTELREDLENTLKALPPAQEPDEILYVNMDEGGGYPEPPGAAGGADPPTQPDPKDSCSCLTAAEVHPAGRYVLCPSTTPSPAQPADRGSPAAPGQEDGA
Nature of the assay: Phospho-Akt In-Cell Western Assay (inhibition of Axl activity after Axl-antibody cross-linking). It is filed as cell-based. Particulars: read-out: IC50. In a few lines:
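Phospho-Akt was detected in formaldehyde-fixed cells by in-cell immunostaining with HRP chemiluminescence. Before fixation, HeLa cells kept 24 h in low-serum medium containing 500 ng/mL Axl/Fc received compound for 1 h at 37 °C, followed by 5-min Axl activation through antibody clustering.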

[1] abbreviates: Hela cells, phospho-Akt chemiluminescence normalized to relative cell number, compounds of formula (Ib), Table 2.
Where [2] appears, read: inhibition of Axl activity, Table 1, compounds of formula (Ia).
Setting [3] is: Hela cells, phospho-Akt chemiluminescence normalized to relative cell number, compounds of formula (Ia), Table 1.

Usually pIC50 stands for the negative decadic logarithm of the IC50, by convention in mol/L. In the case of `CN(C1CCc2ccc(Nc3nc(N)nn3-c3cc4c(nn3)-c3ccccc3CCC4)cc2CC1)C1CC2CCC1C2` (stereo not drawn) [Compound 161, 1-(6,7-dihydro-5H-benzo[6,7]cyclohepta[1,2-c]pyridazin-3-yl)-N^5-(7-((bicyclo[2.2.1]heptan-2-yl)(methyl)amino)-6,7,8,9-tetrahydro-5H-benzo[7]annulene-2-yl)-1H-1,2,4-triazole-3,5-diamine], under setting [1], the pIC50 was 5.00 to 6.00.

For `Cc1csc2c(-n3nc(Nc4cnc5c(c4)CCC4(CCC5)OCC(C)(C)CO4)nc3N)nc(Cl)nc12` [Compound 246, 1-(2-chloro-7-methylthieno[3,2-d]pyrimidin-4-yl)-N^3-(5′,5′-dimethyl-6,8,9,10-tetrahydro-5H-spiro[cycloocta[b]pyridine-7,2′-[1,3]dioxane]-3-yl)-1H-1,2,4-triazole-3,5-diamine], the pIC50 under setting [2] was above 6.00.

As to `CC1(C)CCCC(C)(C)N1CCOc1ccc(Nc2nc(N)n(-c3cc4c(nn3)-c3ccccc3CCC4)n2)cc1` [Compound 14, 1-(6,7-dihydro-5H-benzo[6,7]cyclohepta[1,2-c]pyridazin-3-yl)-N^3-(4-(2,2,6,6-tetramethylpiperidin-1-yl)ethoxyphenyl)-1H-1,2,4-triazole-3,5-diamine], the pIC50 under setting [3] was 5.00 to 6.00.

Consider `Nc1nc(Nc2ccc(N3CCN(C4CCCCC4)CC3)c(F)c2)nn1-c1cc(-c2ccccc2)c2c(n1)-c1ccccc1CCC2` [Compound 192, 1-(4-phenyl-6,7-dihydro-5H-benzo[6,7]cyclohepta[1,2-b]pyridin-2-yl)-N^3-(3-fluoro-4-(4-cyclohexylpiperazin-1-yl)phenyl)-1H-1,2,4-triazole-3,5-diamine], for which the pIC50 under setting [2] is 4.70 to 5.00.

For the compound `N#Cc1cccc(-c2ccc(Nc3nc(N)n(-c4cc5c(nn4)-c4ccccc4CCC5)n3)cn2)c1` [Compound 96, 1-(6,7-dihydro-5H-benzo[6,7]cyclohepta[1,2-c]pyridazin-3-yl)-N^3-(6-(3-cyanophenyl)pyridine-3-yl)-1H-1,2,4-triazole-3,5-diamine], under setting [3], the pIC50 was below 4.70.

On to `Nc1nc(Nc2ccc(OCCN3CCCC3)c(F)c2)nn1-c1cc2c(nn1)-c1ccccc1CCC2` [Compound 48, 1-(6,7-dihydro-5H-benzo[6,7]cyclohepta[1,2-c]pyridazin-3-yl)-N^3-(3-fluoro-4-(2-(pyrrolidin-1-yl)ethoxy)phenyl)-1H-1,2,4-triazole-3,5-diamine], for which, under setting [3], the pIC50 is 5.00 to 6.00.

Consider `COc1cc2c(c(OC)c1OC)-c1nnc(-n3nc(Nc4ccc(N5CCC(N6CCCC6)CC5)c(F)c4)nc3N)cc1CCC2` [Compound 65, 1-(6,7-dihydro-5H-9,10,11-trimethoxybenzo[6,7]cyclo-hepta[1,2-c]pyridazin-3-yl)-N^3-(3-fluoro-4-(4-pyrrolidin-1-yl-piperidin-1-yl)phenyl)-1H-1,2,4-triazole-3,5-diamine], for which the pIC50 under setting [3] was above 6.00.

For the compound `Nc1nc(Nc2ccc3c(c2)CCC(N)CC3)nn1-c1cc2c(nn1)-c1ccccc1CCC2` (stereo not drawn) [Compound 234, 1-(6,7-dihydro-5H-benzo[6,7]cyclohepta[1,2-c]pyridazin-3-yl)-N^3-(7-amino-6,7,8,9-tetrahydro-5H-benzo[7]annulene-2-yl)-1H-1,2,4-triazole-3,5-diamine], under setting [2], the pIC50 was above 6.00.

As to `Nc1nc(Nc2ccc(N3CC4CN(C5CCCC5)CC4C3)c(F)c2)nn1-c1cc2c(nn1)-c1ccccc1CCC2` (stereo not drawn) [Compound 75, 1-(6,7-dihydro-5H-benzo[6,7]cyclohepta[1,2-c]pyridazin-3-yl)-N^3-(3-fluoro-4-(5-cyclopentyloctahydro-pyrrolo[3,4-c]pyrrolyl)phenyl)-1H-1,2,4-triazole-3,5-diamine], the pIC50 under setting [3] is above 6.00.

Turning to `Cc1cc(Nc2nc(N)n(-c3cc4c(nn3)-c3ccccc3CCC4)n2)ccc1N1CCC(N2CCCC2)CC1` [Compound 106, 1-(6,7-dihydro-5H-benzo[6,7]cyclohepta[1,2-c]pyridazin-3-yl)-N^3-(3-methyl-4-(4-pyrrolidin-1-ylpiperidinyl)phenyl)-1H-1,2,4-triazole-3,5-diamine], under setting [3], the pIC50 is above 6.00.

In the case of `Nc1nc(Nc2ccc3c(c2)CC[C@@H](N2CCCC2)CC3)n(-c2cc3c(nn2)-c2ccccc2CCC3)n1` [Compound 249, 1-(6,7-dihydro-5H-benzo[6,7]cyclohepta[1,2-c]pyridazin-3-yl)-N^5-(7-(S)-pyrrolidin-1-yl-6,7,8,9-tetrahydro-5H-benzo[7]annulene-2-yl)-1H-1,2,4-triazole-3,5-diamine], the pIC50 under setting [1] is above 6.00.

As to `Nc1nc(Nc2ccc(N3CCC(N4CC5CN(C6CCCCC6)CC5C4)CC3)c(F)c2)nn1-c1cc2c(nn1)-c1ccccc1CCC2` (stereo not drawn) [Compound 88, 1-(6,7-dihydro-5H-benzo[6,7]cyclohepta[1,2-c]pyridazin-3-yl)-N^3-(3-fluoro-4-(4-(5-cyclohexyl-octahydropyrrolo[3,4-c]pyrrolyl)piperidin-1-yl)phenyl)-1H-1,2,4-triazole-3,5-diamine], the pIC50 under setting [3] is above 6.00.

For `Nc1nc(Nc2ccc(N3CCC(N4CCCC4)CC3)c(F)c2)nn1-c1cc2c(nn1)-c1ccccc1OCC2` [Compound 117, 1-(6,7-dihydro-5H-benzo[2,3]oxepino[4,5-c]pyridazin-3-yl)-N^3-(3-fluoro-4-(4-pyrrolidin-1-ylpiperidinyl)phenyl)-1H-1,2,4-triazole-3,5-diamine], the pIC50 under setting [3] was above 6.00.

For the compound `Cc1cc(Nc2nc(N)n(-c3cc4c(nn3)-c3ccccc3CCC4)n2)cnc1N1CCC(N2CCCC2)CC1` [Compound 136, 1-(6,7-dihydro-5H-benzo[6,7]cyclohepta[1,2-c]pyridazin-3-yl)-N^3-(6-(4-(pyrrolidin-1-yl)piperidin-1-yl)-5-methylpyridin-3-yl)-1H-1,2,4-triazole-3,5-diamine], the pIC50 under setting [2] was above 6.00.

Turning to `Nc1nc(Nc2ccc(/C=C/CN3CCC(N4CCCCC4)CC3)nc2)nn1-c1cc2c(nn1)-c1ccccc1CCC2` [Compound 145, 1-(6,7-dihydro-5H-benzo[6,7]cyclohepta[1,2-c]pyridazin-3-yl)-N^3-(6-(3-(4-(piperidin-1-yl)piperidin-1-yl)-(E)-propenyl)pyridin-3-yl)-1H-1,2,4-triazole-3,5-diamine], under setting [2], the pIC50 is above 6.00.

Regarding `Nc1nc(Nc2ccc(C3CCN(C4CC5CCC4C5)CC3)cc2)nn1-c1cc2c(nn1)-c1ccccc1CCC2` (stereo not drawn) [Compound 211, 1-(6,7-dihydro-5H-benzo[6,7]cyclohepta[1,2-c]pyridazin-3-yl)-N^3-(4-(1-bicyclo[2.2.1]heptan-2-yl)-piperidin-4-ylphenyl)-1H-1,2,4-triazole-3,5-diamine], under setting [2], the pIC50 is below 4.70.

As for `CN1CCC(C2CCN(c3ccc(Nc4nc(N)n(-c5cc6c(nn5)-c5ccccc5CCC6)n4)cc3F)CC2)CC1` [Compound 70, 1-(6,7-dihydro-5H-benzo[6,7]cyclohepta[1,2-c]pyridazin-3-yl)-N^3-(3-fluoro-4-(4-N-methylpiperidin-4-yl-piperidin-1-yl)phenyl)-1H-1,2,4-triazole-3,5-diamine], the pIC50 under setting [3] was above 6.00.

As to `C[C@H]1CCCN1C1CCc2ccc(Nc3nc(N)n(-c4cc5c(nn4)-c4ccccc4CCC5)n3)cc2CC1` (stereo partly drawn) [Compound 218, 1-(6,7-dihydro-5H-benzo[6,7]cyclohepta[1,2-c]pyridazin-3-yl)-N^3-(7-(2-(S)-methylpyrrolidin-1-yl)-6,7,8,9-tetrahydro-5H-benzo[7]annulene-2-yl)-1H-1,2,4-triazole-3,5-diamine], the pIC50 under setting [2] is above 6.00.
